These results are taken from patent publication US10124004B2, “Pyrido[3,4-d]pyrimidine derivative and pharmaceutically acceptable salt thereof” (Teijin Pharma Limited, priority 2015, dated 2018).

Like-named read-outs stand apart in the source and are kept apart here. Where only a bound is given, the exact number is not on record here.

One experiment concerns the target T1, CDK2/cyclin A2 (Homo sapiens, UniProt P24941).
T1 construct: purchased Carna Biosciences, Inc. QS S Assist CDK2/Cyclin A2_FP Kit
Description: Human CDK2/cyclin A2 inhibitory activity (QS S Assist CDK2/Cyclin A2_FP Kit, IMAP fluorescence polarization). Type of experiment: biochemical. How it is done: Human CDK2/Cyclin A^2 Inhibitory Activity
Each compound was analyzed for CDK2/cyclin A2 inhibitory activity with an assay kit (QS S Assist CDK2/Cyclin A2_FP Kit, available from Carna Biosciences, Inc.). This assay kit determines kinase activity on the basis of the IMAP technology by Molecular Devices. Specifically, the kinase activity is determined through quantification of a variation in fluorescent polarization caused by binding of a kinase-phosphorylated fluorescent substance to an IMAP-binding reagent.
An assay buffer was prepared by 10-fold dilution of the 10× assay buffer attached to the kit with distilled water, and each solution was prepared with the assay buffer. The assay buffer contained 20 mM HEPES (pH 7.4), 0.01% Tween 20, and 2 mM dithiothreitol. A test compound solution was prepared by dilution of the test compound with dimethyl sulfoxide (DMSO) to a concentration 100 times higher than the final concentration and then 25-fold dilution with the assay buffer to a concentration four times higher than the final concentration. An ATP/substrate/Metal solution was prepared by five-fold dilution of the 5×ATP/substrate/Metal solution attached to the kit with the assay buffer. An enzyme solution was prepared by dilution of the CDK2/cyclin A2 attached to the kit with the assay buffer to a concentration twice higher than the final concentration (final concentration of CDK2/cyclin A2: 2.5 ng/well). A detection reagent was prepared by five-fold dilution of 5×IMAP-binding buffer A with distilled water and 400-fold dilution of the IMAP-binding reagent with the diluted buffer.
The test compound solution (5 μL/well) and the ATP/substrate/Metal solution (5 μL/well) were added to a 384-well plate, and the enzyme solution or the assay buffer (10 μL/well) was added to the plate (total amount of the reaction mixture: 20 μL/well) for initiation of enzymatic reaction. […] The reaction was performed at room temperature for 60 minutes, and the detection reagent (60 μL/well) was then added to the plate, followed by further reaction for 30 minutes at room temperature under light shielding conditions. Subsequently, fluorescent polarization was determined with a microplate reader at an excitation wavelength of 485 nm and an emission wavelength of 535 nm.
The percent inhibition of enzyme activity was calculated for each test compound (note: enzyme activity=100% in the case of addition of the enzyme solution and addition of DMSO instead of the test compound solution, whereas enzyme activity=0% in the case of addition of the assay buffer instead of the enzyme solution and addition of DMSO instead of the test compound solution). The percent inhibition of enzyme activity was fitted to a dose-response curve, to determine a 50% inhibitory concentration against CDK2/cyclin A2.
In each table, “+++” corresponds to IC50<10 nM, “++” 10 nM≤IC50<100 nM, and “+” 100 nM≤IC50.
Background: Fluorescence polarisation rises when a labelled molecule tumbles more slowly, as on binding a larger partner.

In another experiment the target is T2, CDK4/cyclin D3 (Homo sapiens, UniProt P11802).
T2 construct: purchased Carna Biosciences, Inc. QS S Assist CDK4/Cyclin D3_FP Kit
T2 sequence (P11802 whole entry): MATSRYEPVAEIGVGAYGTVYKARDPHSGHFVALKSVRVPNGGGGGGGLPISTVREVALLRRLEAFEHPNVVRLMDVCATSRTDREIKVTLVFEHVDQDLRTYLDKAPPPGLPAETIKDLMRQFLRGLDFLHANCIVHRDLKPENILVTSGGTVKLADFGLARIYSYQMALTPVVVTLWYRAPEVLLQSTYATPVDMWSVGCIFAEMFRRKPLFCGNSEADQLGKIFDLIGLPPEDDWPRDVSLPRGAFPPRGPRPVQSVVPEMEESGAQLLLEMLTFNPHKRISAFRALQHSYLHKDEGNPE
T2 sequence (P30281 whole entry partner): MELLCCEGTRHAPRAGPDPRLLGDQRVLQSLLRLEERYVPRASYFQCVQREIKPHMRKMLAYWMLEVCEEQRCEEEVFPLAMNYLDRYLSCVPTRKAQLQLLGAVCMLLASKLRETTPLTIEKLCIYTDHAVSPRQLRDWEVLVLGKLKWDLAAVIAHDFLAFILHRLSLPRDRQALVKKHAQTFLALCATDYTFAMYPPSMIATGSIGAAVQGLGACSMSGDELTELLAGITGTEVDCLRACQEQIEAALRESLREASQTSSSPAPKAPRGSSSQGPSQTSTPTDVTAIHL
In words: Human CDK4/cyclin D3 inhibitory activity (QS S Assist CDK4/Cyclin D3_FP Kit, IMAP fluorescence polarization). It counts as biochemical. The procedure, abridged:
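IMAP fluorescence-polarization kinase assay with kit ATP/substrate/metal mix and 12.5 to 25 ng/well enzyme in 20 mM HEPES pH 7.4, 0.01% Tween20, 2 mM DTT. Reaction ran 45 min at room temperature, then binding reagent was added for 30 min in the dark. IC50 was taken from dose-response fits of percent inhibition.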

[1] abbreviates: Human CDK4/cyclin D3 inhibitory activity, read-out: CDK4 Activity symbol.
[2] abbreviates: 50% inhibitory concentration against CDK2/cyclin A2, given as class symbol.
The mark [3] stands for this setting: 50% inhibitory concentration against CDK4/cyclin D3, given as class symbol.

On to `CC(C)Nc1nc(C(C)O)cc2cnc(Nc3ccc(N4CCCC(O)C4)nn3)nc12` (single isomer, unassigned) [Compound 581], for which the IC50 at CDK2/cyclin A2 (Human CDK2/cyclin A2 inhibitory activity, read-out: CDK2 Activity symbol) was no less than 100 nM; at CDK4/cyclin D3 (setting [1]), less than 10 nM.

For the compound `CC(C)Nc1nc(C2CCCO2)cc2cnc(Nc3ccc(N4CCNCC4)nn3)nc12` (single isomer, unassigned) [Compound 713], the IC50 against CDK2/cyclin A2 (setting [2]) was no less than 100 nM; on CDK4/cyclin D3 (setting [3]) it was less than 10 nM.

Regarding `CC(C)Nc1nc(C2CCCO2)cc2cnc(Nc3ccc(N4CCNCC4)nn3)nc12` (single isomer, unassigned) [Compound 714], the IC50 at CDK2/cyclin A2 (setting [2]) and on CDK4/cyclin D3 (setting [3]) was no less than 100 nM in each case.

`CC(C)Nc1nc(C(C)O)cc2cnc(Nc3ccc(N4CCC(O)C5(CC5)C4)nn3)nc12` (single isomer, unassigned) [Compound 724]: the IC50 on CDK2/cyclin A2 (setting [2]) is no less than 100 nM; against CDK4/cyclin D3 (setting [3]), less than 10 nM.

For the compound `CC(C)Nc1nc(C(C)O)cc2cnc(Nc3ccc(N4CCC(O)C5(CC5)C4)nn3)nc12` (single isomer, unassigned) [Compound 725], the values for the IC50 on CDK2/cyclin A2 (setting [2]) and at CDK4/cyclin D3 (setting [3]) were no less than 100 nM and less than 10 nM, respectively.

For the compound `CC(C)Nc1nc(C2CCCO2)cc2cnc(Nc3ccc(CN4CCNCC4)cn3)nc12` (single isomer, unassigned) [Compound 729], the IC50 on CDK2/cyclin A2 (setting [2]) is no less than 100 nM; on CDK4/cyclin D3 (setting [3]), less than 10 nM.

Take `CC(C)Nc1nc(C2CCCO2)cc2cnc(Nc3ccc(CN4CCNCC4)cn3)nc12` (single isomer, unassigned) [Compound 730]: the IC50 is no less than 100 nM against CDK2/cyclin A2 (setting [2]) and 10 to 100 nM against CDK4/cyclin D3 (setting [3]).

Consider `CC(C)Nc1nc(C(C)O)cc2cnc(Nc3ccc(C4CNCCO4)cn3)nc12` (single isomer, unassigned) [Compound 735], for which the IC50 at CDK2/cyclin A2 (setting [2]) is no less than 100 nM; against CDK4/cyclin D3 (setting [3]) it was less than 10 nM.

Regarding `CC(C)Nc1nc(C(C)O)cc2cnc(Nc3ccc(C4CNCCO4)cn3)nc12` (single isomer, unassigned) [Compound 736], the IC50 was no less than 100 nM against CDK2/cyclin A2 (setting [2]) and less than 10 nM on CDK4/cyclin D3 (setting [3]).

Turning to `CC(C)Nc1nc(C2CCOC2)cc2cnc(Nc3ccc(N4CCNCC4=O)cn3)nc12` (single isomer, unassigned) [Compound 773], the results for the IC50 against CDK2/cyclin A2 (setting [2]) and against CDK4/cyclin D3 (setting [3]) were no less than 100 nM and less than 10 nM, respectively.

On to `CC(C)Nc1nc(C2CCOC2)cc2cnc(Nc3ccc(N4CCNCC4=O)cn3)nc12` (single isomer, unassigned) [Compound 774], for which the IC50 on CDK2/cyclin A2 (setting [2]) is no less than 100 nM; against CDK4/cyclin D3 (setting [3]) it was 10 to 100 nM.

Take `CC(C)Nc1nc(C(C)O)cc2cnc(Nc3ccc(N4CCNCC4C(F)(F)F)cn3)nc12` (single isomer, unassigned) [Compound 775]: the values for the IC50 at CDK2/cyclin A2 (setting [2]) and against CDK4/cyclin D3 (setting [3]) were no less than 100 nM and less than 10 nM, respectively.

On to `CC(C)Nc1nc(C(C)O)cc2cnc(Nc3ccc(N4CCNCC4C(F)(F)F)cn3)nc12` (single isomer, unassigned) [Compound 776], for which the IC50 was no less than 100 nM against CDK2/cyclin A2 (setting [2]) and less than 10 nM at CDK4/cyclin D3 (setting [3]).

As for `CC(C)Nc1nc(C(C)O)cc2cnc(Nc3ccc(N4CCN(C(C)CO)CCC4=O)cn3)nc12` (single isomer, unassigned) [Compound 809], the IC50 against CDK2/cyclin A2 (setting [2]) was 10 to 100 nM; against CDK4/cyclin D3 (setting [3]), less than 10 nM.

As to `CC(C)Nc1nc(C(C)O)cc2cnc(Nc3ccc(N4CCN(C(C)CO)CCC4=O)cn3)nc12` (single isomer, unassigned) [Compound 810], the figures for the IC50 against CDK2/cyclin A2 (setting [2]) and on CDK4/cyclin D3 (setting [3]) were no less than 100 nM and less than 10 nM, respectively.

Turning to `CC(C)Nc1nc(C(C)O)cc2cnc(Nc3ccc(OC4CCC(C(=O)O)CC4)cn3)nc12` (single isomer, unassigned) [Compound 831], the IC50 against CDK2/cyclin A2 (setting [2]) was no less than 100 nM; against CDK4/cyclin D3 (setting [3]) it was 10 to 100 nM.

On to `CC(C)Nc1nc(C(C)O)cc2cnc(Nc3ccc(OC4CCC(C(=O)O)CC4)cn3)nc12` (single isomer, unassigned) [Compound 832], for which the results for the IC50 on CDK2/cyclin A2 (setting [2]) and against CDK4/cyclin D3 (setting [3]) were no less than 100 nM and 10 to 100 nM, respectively.

`CC(C)Nc1nc(C(C)O)cc2cnc(Nc3ccc(C4COCCN4)cn3)nc12` (single isomer, unassigned) [Compound 865]: the IC50 on CDK2/cyclin A2 (setting [2]) was no less than 100 nM; at CDK4/cyclin D3 (setting [3]), less than 10 nM.

`CC(C)Nc1nc(C(C)O)cc2cnc(Nc3ccc(C4COCCN4)cn3)nc12` (single isomer, unassigned) [Compound 866]: the IC50 against CDK2/cyclin A2 (setting [2]) was no less than 100 nM; on CDK4/cyclin D3 (setting [3]), less than 10 nM.

For `CNCCOc1ccc(Nc2ncc3cc(C(C)O)nc(NC4(C)CCCOC4)c3n2)nc1` (single isomer, unassigned) [Compound 869], the IC50 on CDK2/cyclin A2 (setting [2]) was 10 to 100 nM; against CDK4/cyclin D3 (setting [3]), less than 10 nM.

Consider `CNCCOc1ccc(Nc2ncc3cc(C(C)O)nc(NC4(C)CCCOC4)c3n2)nc1` (single isomer, unassigned) [Compound 870], for which the values for the IC50 on CDK2/cyclin A2 (setting [2]) and on CDK4/cyclin D3 (setting [3]) were no less than 100 nM and less than 10 nM, respectively.

Regarding `Cc1nc(Nc2ncc3cc(C4CCOC4)nc(NC(C)C)c3n2)ccc1N1CCNCC1=O` (single isomer, unassigned) [Compound 875], the IC50 was no less than 100 nM on CDK2/cyclin A2 (setting [2]) and less than 10 nM on CDK4/cyclin D3 (setting [3]).

Consider `Cc1nc(Nc2ncc3cc(C4CCOC4)nc(NC(C)C)c3n2)ccc1N1CCNCC1=O` (single isomer, unassigned) [Compound 876], for which the figures for the IC50 against CDK2/cyclin A2 (setting [2]) and against CDK4/cyclin D3 (setting [3]) were no less than 100 nM and less than 10 nM, respectively.

For `c1cc(N2CCNCC2)nnc1Nc1ncc2cc(C3CCOC3)nc(N[C@H]3CCCOC3)c2n1` (single isomer, unassigned) [Compound 939], the IC50 is no less than 100 nM against CDK2/cyclin A2 (setting [2]) and less than 10 nM on CDK4/cyclin D3 (setting [3]).

On to `c1cc(Nc2ncc3cc(C4CCOC4)nc(N[C@H]4CCCOC4)c3n2)ncc1CN1CCNCC1` (single isomer, unassigned) [Compound 940], for which the results for the IC50 against CDK2/cyclin A2 (setting [2]) and at CDK4/cyclin D3 (setting [3]) were no less than 100 nM and less than 10 nM, respectively.

In the case of `c1cc2c(nc1Nc1ncc3cc(C4CCOC4)nc(N[C@H]4CCCOC4)c3n1)CCNC2` (single isomer, unassigned) [Compound 942], the figures for the IC50 against CDK2/cyclin A2 (setting [2]) and against CDK4/cyclin D3 (setting [3]) were no less than 100 nM and less than 10 nM, respectively.

Take `c1cc2c(nc1Nc1ncc3cc(C4CCOC4)nc(NC4CCCOC4)c3n1)CCNC2` (single isomer, unassigned) [Compound 943]: the IC50 against CDK2/cyclin A2 (setting [2]) is no less than 100 nM; on CDK4/cyclin D3 (setting [3]) it was 10 to 100 nM.

In the case of `CC(C)Nc1nc([C@@H](C)O)cc2cnc(Nc3ccc(N4CC5(CNC(=O)C5)C4)nn3)nc12` [Compound 620], the IC50 at CDK4/cyclin D3 (setting [1]) was less than 10 nM.

For `CO[C@H](C)c1cc2cnc(Nc3ccc(N4CCN(CCC(=O)O)CC4)nn3)nc2c(NC(C)C)n1` [Compound 684, (R)-3-(4-(6-((8-(isopropylamino)-6-(l-methoxyethyl)pyrido[3,4-d]pyrimidin-2-yl)amino)pyridazin-3-yl)piperazin-1-yl)propanoic acid], the IC50 at CDK4/cyclin D3 (setting [3]) lay within 10 to 100 nM.

In the case of `CO[C@H](C)c1cc2cnc(Nc3ccc(CN4CCN(CCC(=O)O)CC4)cn3)nc2c(NC(C)C)n1` [Compound 685], at CDK4/cyclin D3 (setting [3]), the IC50 is 10 to 100 nM.

At CDK4/cyclin D3 (setting [3]), `CC(C)Nc1nc([C@@H](C)O)cc2cnc(Nc3ccc(N4CC5CC(C4)C5O)nn3)nc12` (stereo partly shown) [Compound 687] gave an IC50 of less than 10 nM.

Take `CC(C)Nc1nc([C@@H](C)O)cc2cnc(Nc3ccc(N4CCC(C)(CO)CC4)nn3)nc12` [Compound 688]: the IC50 at CDK4/cyclin D3 (setting [3]) was less than 10 nM.

`CO[C@H](C)c1cc2cnc(Nc3ccc(CN4CCN(CCCC(=O)O)CC4)cn3)nc2c(NC(C)C)n1` [Compound 697] showed an IC50 against CDK4/cyclin D3 (setting [3]) of 10 to 100 nM.

As for `CO[C@H](C)c1cc2cnc(Nc3ccc(N4CCN(CCCC(=O)O)CC4)nn3)nc2c(NC(C)C)n1` [Compound 699], on CDK4/cyclin D3 (setting [3]), the IC50 is 10 to 100 nM.

Compound `CC(C)Nc1nc([C@@H](C)O)cc2cnc(Nc3ccc(N4CC(F)(CO)C4)nn3)nc12` [Compound 707] gave an IC50 at CDK4/cyclin D3 (setting [3]) of less than 10 nM.

The compound `CCCNc1nc([C@@H](C)O)cc2cnc(Nc3ccc(CN4CCCC(O)C4)cn3)nc12` (stereo partly shown) [Compound 1082] yielded an IC50 on CDK2/cyclin A2 (setting [2]) of no less than 100 nM.

Compound `CC(C)Nc1nc([C@@H](C)O)cc2cnc(Nc3ccc(N4CCN(C(=O)C5CCCO5)CC4)nn3)nc12` (stereo partly shown) [Compound 1184] came in with an IC50 against CDK2/cyclin A2 (setting [2]) of no less than 100 nM.
